# Patent US7816074B2, “α4 β2 δGABA-A receptors as a strategy for PMS and alcoholism” (priority 2003, dated 2010)
# Legend:
# Type in all cases: in vivo, rat
# GABAR α4 subunit = assay: Western blot of α4 subunit in hippocampus after steroid and ethanol administration; details: steroid withdrawal after 21 days progesterone
# Experimental: Animals were administered steroids using one of two protocols: (i) For the 48 hour steroid administration protocol, animals were injected with 10 mg/kg 3α, 5β THP in oil, i.p., on a daily basis for three days and sacrificed 1-2 hour following the final injection. Controls were injected with oil vehicle. […] At this time, the capsule was removed and the animals were injected with 17 β estradiol (2 μgs/animal) in order to reset their cycle. Animals were sacrificed 24 hours later. […] In all cases, implantation and removal of capsules were performed under halothane anesthesia. […] Therefore, this study employed the 5β isomer of the steroid.
# In some groups of animals, either ethanol (0.5 g/kg in saline) or saline vehicle was administered i.p. (3×, every 40 minutes) for the final 2 hours of the respective steroid administration or withdrawal paradigm. The use of multiple injections of low doses of ethanol would approximate ethanol consumption in the human more closely than would a single injection. For the 48 hour steroid administration paradigm, animals received their first ethanol injection immediately after the steroid injection, and subsequent injections at 40 minute intervals. In all cases, animals were sacrificed 40 minutes after the final ethanol injection (2 hours after the first ethanol injection and final steroid injection). All animal protocols were carried out with the approval of the Institutional Animal Care and Use Committee.
# Hippocampi removed from steroid or vehicle-treated animals were homogenized, and membranes prepared as previously described (65). Following electrophoresis on 8% SDS polyacrylamide gels, membranes were transferred to a nitrocellulose membrane (Bio-Rad, Hercules, Calif.). α4 subunit levels were detected by evaluating the band density at 67 kDa after probing with a polyclonal antibody (64). Membranes were incubated for 1-2 hours at room temperature with a 1:5000 dilution of horseradish peroxidase-conjugated donkey anti-rabbit IgG (Amersham, Arlington Heights, Ill.), and visualized with enhanced chemiluminescence with varying concentrations of protein in the linear range. Immunoreactive band densities were quantified using a CCD camera (UMAX Scanner) and one-Dscan software, which uses multiple Gaussian fits to achieve accurate band density profiles.
# [1] = tested on: δ and α4 GABAA receptor subunit proteins; assay: Western blot of δ and α4 subunits in hippocampus after progesterone withdrawal
# Experimental: (§1) Crystalline progesterone was administered via a silicone capsule ( 1/16″ i.d., ⅛″ o.d.) implanted subcutaneously (10 mm length/100 gm body weight) in female rats (110-120 grams, in vitro studies; 220-250 grams, behavioral studies) for 21 days. Control rats were implanted with an empty capsule. […] Animals were tested 24 hours after removal of the implant.
# Membranes prepared from hippocampal tissue were solubilized and electrophoresed on 9% SDS-polyacrylamide gels before transfer to a polyvinyldifluoride membrane, as described (65,69). Polyclonal antiserum against the δ subunit (Asr^318-Leu^400) was supplied by Dr. R. McKernan (Merck)(56) and is visualized as a 54 kDa band. Membranes were also probed with an antibody for the α4 GABAA receptor subunit (67 kDa) (64), developed according to a previously described protocol (38), and a commercial antibody for the control protein GAPDH (glyceraldehyde-3-phosphate dehydrogenase; 36 kDa). Membranes were incubated for 1-2 hours at room temperature with 1:10,000 (α4), 1:7,000 (δ) or 1:20,000 (GAPDH) dilution of antibody followed by addition of 1:5,000 horseradish-peroxidase-conjugated donkey anti-rabbit IgG (Amersham). Band densities were quantified using densitometry with One-Dscan software after normalization to the GAPDH control. Reagents were obtained from Sigma/Genosys.
# δ subunit mRNA = assay: Semi-quantitative RT-PCR of δ subunit in hippocampus; details: after progesterone withdrawal
# Experimental: as §1
# Following isolation of total RNA from hippocampus, reverse transcription (SuperScript II, Rnase RT, GibcoBRL) yielded complementary DNA (cDNA) which was amplified with PCR methods (65) using oligonucleotide primers for the δ subunit (398 bp)(70) and GAPDH (657 bp, Operon). Twenty three to thirty amplification cycles were used for two different concentrations of cDNA (25 or 50 ng) to detect band densities within a linear range (15). Following gel electrophoresis (FMC Bioproducts), the density of DNA bands stained with ethidium bromide was quantified and normalized to the GAPDH control.
compound,measurement,setting,value
CC(=O)[C@H]1CC[C@H]2[C@@H]3CCC4=CC(=O)CC[C@]4(C)[C@H]3CC[C@]12C [progesterone],increase of α4 expression,GABAR α4 subunit,threefold
same,expression of α4 subunit protein in hippocampus,[1],three-fold
same,expression of δ subunit protein in hippocampus,[1],three-fold
same,δ subunit mRNA in hippocampus,δ subunit mRNA,three-fold
